Test results as given in PubChem BioAssay (NCI).
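96-well plates; 48 h exposure; 5 concentrations. Endpoints by linear interpolation between flanking doses. Not reached: highest tested concentration assigned. At the TGI there is no net growth.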

Key:
Assay in all cases: inhibition of tumour cell growth, NCI panel, 48 h
MOLT-4 leukemia = tested on: MOLT-4 leukemia
SK-MEL-2 melanoma = tested on: SK-MEL-2 melanoma
SF-539 CNS = tested on: SF-539 CNS
SK-MEL-28 melanoma = tested on: SK-MEL-28 melanoma
K-562 leukemia = tested on: K-562 leukemia
NCI-H460 lung = tested on: NCI-H460 lung
SF-295 CNS = tested on: SF-295 CNS
HCT-116 colon = tested on: HCT-116 colon
SNB-75 CNS = tested on: SNB-75 CNS
SR leukemia = tested on: SR leukemia
DU-145 prostate = tested on: DU-145 prostate
TK-10 renal = tested on: TK-10 renal
HL-60(TB) leukemia = tested on: HL-60(TB) leukemia
786-0 renal = tested on: 786-0 renal
U251 CNS = tested on: U251 CNS
UACC-62 melanoma = tested on: UACC-62 melanoma
OVCAR-4 ovarian = tested on: OVCAR-4 ovarian
HCC-2998 colon = tested on: HCC-2998 colon
KM12 colon = tested on: KM12 colon
T-47D breast = tested on: T-47D breast
MDA-MB-435 = tested on: MDA-MB-435
SF-268 CNS = tested on: SF-268 CNS
OVCAR-3 ovarian = tested on: OVCAR-3 ovarian
SN12C renal = tested on: SN12C renal
MALME-3M melanoma = tested on: MALME-3M melanoma
SK-MEL-5 melanoma = tested on: SK-MEL-5 melanoma
NCI/ADR-RES ovarian = tested on: NCI/ADR-RES ovarian
LOX IMVI melanoma = tested on: LOX IMVI melanoma
UO-31 renal = tested on: UO-31 renal
RPMI-8226 leukemia = tested on: RPMI-8226 leukemia
A549 NSCLC = tested on: A549 NSCLC
MDA-N = tested on: MDA-N
HT29 colon = tested on: HT29 colon
PC-3 prostate = tested on: PC-3 prostate
HOP-62 NSCLC = tested on: HOP-62 NSCLC
SK-OV-3 ovarian = tested on: SK-OV-3 ovarian
MDA-MB-231 breast = tested on: MDA-MB-231 breast
UACC-257 melanoma = tested on: UACC-257 melanoma
HS 578T breast = tested on: HS 578T breast
OVCAR-5 ovarian = tested on: OVCAR-5 ovarian
HCT-15 colon = tested on: HCT-15 colon
COLO 205 colon = tested on: COLO 205 colon
IGROV1 ovarian = tested on: IGROV1 ovarian
NCI-H522 lung = tested on: NCI-H522 lung
EKVX NSCLC = tested on: EKVX NSCLC
SNB-19 CNS = tested on: SNB-19 CNS
CCRF-CEM leukemia = tested on: CCRF-CEM leukemia
CAKI-1 renal = tested on: CAKI-1 renal
MCF7 breast = tested on: MCF7 breast
M14 melanoma = tested on: M14 melanoma
NCI-H226 lung = tested on: NCI-H226 lung
OVCAR-8 ovarian = tested on: OVCAR-8 ovarian
RXF 393 renal = tested on: RXF 393 renal
NCI-H23 lung = tested on: NCI-H23 lung
HOP-92 NSCLC = tested on: HOP-92 NSCLC
ACHN renal = tested on: ACHN renal
SW-620 colon = tested on: SW-620 colon
BT-549 breast = tested on: BT-549 breast
A498 renal = tested on: A498 renal

O=C(O)c1ccc(Nc2nc3ccc(C(F)(F)F)cc3nc2C(=O)O)cc1
TGI (MOLT-4 leukemia): > 100 µM
TGI (SK-MEL-2 melanoma): > 100 µM
TGI (SF-539 CNS): > 100 µM
TGI (SK-MEL-28 melanoma): > 100 µM
TGI (K-562 leukemia): > 100 µM
TGI (NCI-H460 lung): > 100 µM
TGI (SF-295 CNS): > 100 µM
TGI (HCT-116 colon): > 100 µM
TGI (SNB-75 CNS): > 100 µM
TGI (SR leukemia): > 100 µM
TGI (DU-145 prostate): > 100 µM
TGI (TK-10 renal): > 100 µM
TGI (HL-60(TB) leukemia): > 100 µM
TGI (786-0 renal): > 100 µM
TGI (U251 CNS): > 100 µM
TGI (UACC-62 melanoma): > 100 µM
TGI (OVCAR-4 ovarian): > 100 µM
TGI (HCC-2998 colon): > 100 µM
TGI (KM12 colon): > 100 µM
TGI (T-47D breast): > 100 µM
TGI (MDA-MB-435): > 100 µM
TGI (SF-268 CNS): > 100 µM
TGI (OVCAR-3 ovarian): > 100 µM
TGI (SN12C renal): > 100 µM
TGI (MALME-3M melanoma): > 100 µM
TGI (SK-MEL-5 melanoma): > 100 µM
TGI (NCI/ADR-RES ovarian): > 100 µM
TGI (LOX IMVI melanoma): > 100 µM
TGI (UO-31 renal): > 100 µM
TGI (RPMI-8226 leukemia): > 100 µM
TGI (A549 NSCLC): > 100 µM
TGI (MDA-N): > 100 µM
TGI (HT29 colon): > 100 µM
TGI (PC-3 prostate): > 100 µM
TGI (HOP-62 NSCLC): > 100 µM
TGI (SK-OV-3 ovarian): > 100 µM
TGI (MDA-MB-231 breast): > 100 µM
TGI (UACC-257 melanoma): > 100 µM
TGI (HS 578T breast): > 100 µM
TGI (OVCAR-5 ovarian): > 100 µM
TGI (HCT-15 colon): > 100 µM
TGI (COLO 205 colon): > 100 µM
TGI (IGROV1 ovarian): > 100 µM
TGI (NCI-H522 lung): > 100 µM
TGI (EKVX NSCLC): > 100 µM
TGI (SNB-19 CNS): > 100 µM
TGI (CCRF-CEM leukemia): > 100 µM
TGI (CAKI-1 renal): > 100 µM
TGI (MCF7 breast): > 100 µM
TGI (M14 melanoma): > 100 µM
TGI (NCI-H226 lung): > 100 µM
TGI (OVCAR-8 ovarian): > 100 µM
TGI (RXF 393 renal): > 100 µM
TGI (NCI-H23 lung): > 100 µM
TGI (HOP-92 NSCLC): > 100 µM
TGI (ACHN renal): > 100 µM
TGI (SW-620 colon): > 100 µM

O=C1Nc2n[nH]c(=S)n2NC12c1ccccc1-c1ccccc12
TGI (SK-MEL-2 melanoma): > 100 µM
TGI (SF-539 CNS): > 100 µM
TGI (SK-MEL-28 melanoma): > 100 µM
TGI (NCI-H460 lung): > 100 µM
TGI (SF-295 CNS): > 100 µM
TGI (HCT-116 colon): 93.6 µM
TGI (SNB-75 CNS): > 100 µM
TGI (SR leukemia): > 100 µM
TGI (DU-145 prostate): > 100 µM
TGI (TK-10 renal): > 100 µM
TGI (HL-60(TB) leukemia): > 100 µM
TGI (786-0 renal): > 100 µM
TGI (U251 CNS): > 100 µM
TGI (UACC-62 melanoma): 68.1 µM
TGI (BT-549 breast): > 100 µM
TGI (OVCAR-4 ovarian): 39.1 µM
TGI (HCC-2998 colon): > 100 µM
TGI (MDA-MB-435): 37.4 µM
TGI (SF-268 CNS): > 100 µM
TGI (OVCAR-3 ovarian): > 100 µM
TGI (SN12C renal): > 100 µM
TGI (MALME-3M melanoma): > 100 µM
TGI (SK-MEL-5 melanoma): > 100 µM
TGI (NCI/ADR-RES ovarian): > 100 µM
TGI (LOX IMVI melanoma): > 100 µM
TGI (UO-31 renal): > 100 µM
TGI (A549 NSCLC): > 100 µM
TGI (MDA-N): > 100 µM
TGI (HT29 colon): > 100 µM
TGI (PC-3 prostate): > 100 µM
TGI (HOP-62 NSCLC): > 100 µM
TGI (SK-OV-3 ovarian): > 100 µM
TGI (MDA-MB-231 breast): > 100 µM
TGI (UACC-257 melanoma): 48.4 µM
TGI (HS 578T breast): > 100 µM
TGI (OVCAR-5 ovarian): > 100 µM
TGI (HCT-15 colon): > 100 µM
TGI (COLO 205 colon): > 100 µM
TGI (IGROV1 ovarian): > 100 µM
TGI (NCI-H522 lung): > 100 µM
TGI (EKVX NSCLC): > 100 µM
TGI (SNB-19 CNS): > 100 µM
TGI (CAKI-1 renal): > 100 µM
TGI (MCF7 breast): > 100 µM
TGI (M14 melanoma): > 100 µM
TGI (NCI-H226 lung): > 100 µM
TGI (OVCAR-8 ovarian): > 100 µM
TGI (RXF 393 renal): > 100 µM
TGI (NCI-H23 lung): > 100 µM
TGI (HOP-92 NSCLC): > 100 µM
TGI (A498 renal): > 100 µM
TGI (ACHN renal): > 100 µM
TGI (SW-620 colon): > 100 µM
